How the values were obtained:
[1] = Whether having lipid solubility (solubility in MEK, PGMEA, cyclo-hexanone, or toluene); format: physicochemical
Experimental: (§1) The maximum absorption wavelength bands and absorbance were measured using Shimadzu UV-1800 UV-vis. Spectrophotometer. Whether having lipid solubility was determined to be lipid soluble when the solubility of the compounds in MEK, PGMEA, cyclo-hexanone, or toluene was 1 wt % or more.

[2] = Maximum absorption wavelength band and absorbance, Shimadzu UV-1800 UV-vis spectrophotometer; format: physicochemical
Experimental: as §1

Compound	Maximum absorption wavelength band [2]	Whether having lipid solubility [1]
CCCCOc1ccc(/N=N/c2ccc(N3CCN(c4ccc(/N=N/c5ccc(OCCCC)cc5)cc4)CC3)cc2)cc1 [Compound A124]	500-600 nm	∘ (determined to be lipid soluble when the solubility of the compounds in MEK, PGMEA, cyclo-hexanone, or toluene was 1 wt % or more)
CCN(CC)c1ccc(/N=N/c2ccc(N3CCN(c4ccc(/N=N/c5ccc(N(CC)CC)cc5O)cc4)CC3)cc2)c(O)c1 [Compound A132]	500-600 nm	∘ (determined to be lipid soluble when the solubility of the compounds in MEK, PGMEA, cyclo-hexanone, or toluene was 1 wt % or more)
CCCCN(C)c1ccc(/N=N/c2ccc(N3CCN(c4ccc(/N=N/c5ccc(N(C)CCCC)cc5)cc4)CC3)cc2)cc1 [Compound A133]	500-600 nm	∘ (determined to be lipid soluble when the solubility of the compounds in MEK, PGMEA, cyclo-hexanone, or toluene was 1 wt % or more)
C=C(C)C(=O)N(CC)c1ccc(/N=N/c2ccc(N3CCN(c4ccc(/N=N/c5ccc(N(CC)C(=O)C(=C)C)cc5C)cc4)CC3)cc2)c(C)c1 [Compound A138]	500-600 nm	∘ (determined to be lipid soluble when the solubility of the compounds in MEK, PGMEA, cyclo-hexanone, or toluene was 1 wt % or more)

More lines, main results first:

Maximum absorption wavelength band [2]	Compound	Whether having lipid solubility [1]
≥ 600- nm	CCCCN(C)c1ccc(/N=N/c2ncc(-c3cnc(/N=N/c4ccc(N(C)CCCC)cc4)s3)s2)cc1 [Compound B117]	∘ (determined to be lipid soluble when the solubility of the compounds in MEK, PGMEA, cyclo-hexanone, or toluene was 1 wt % or more)
≥ 600- nm	CCN(CC)c1ccc(/N=N/c2ncc(-c3cnc(/N=N/c4ccc(N(CC)CC)cc4O)s3)s2)c(O)c1 [Compound B123]	∘ (determined to be lipid soluble when the solubility of the compounds in MEK, PGMEA, cyclo-hexanone, or toluene was 1 wt % or more)
≥ 600- nm	Cc1c(O)c(/N=N/c2ncc(-c3cnc(/N=N/c4cc5ccc(N)cc5c(C)c4O)s3)s2)cc2ccc(N)cc12 [Compound B127]	∘ (determined to be lipid soluble when the solubility of the compounds in MEK, PGMEA, cyclo-hexanone, or toluene was 1 wt % or more)
400-500 nm	CCCCOc1ccc(/N=N/c2ccc(/C=C/c3ccc(/N=N/c4ccc(OCCCC)cc4)cc3)cc2)cc1 [Compound C103]	∘ (determined to be lipid soluble when the solubility of the compounds in MEK, PGMEA, cyclo-hexanone, or toluene was 1 wt % or more)
500-600 nm	Nc1ccc(/N=N/c2ccc(-c3ccc(-c4ccc(/N=N/c5ccc(N)cc5)cc4)cc3)cc2)cc1 [Compound D110]	∘ (determined to be lipid soluble when the solubility of the compounds in MEK, PGMEA, cyclo-hexanone, or toluene was 1 wt % or more)
